Measured values published in US7741283B2, “Compositions and methods for inhibiting cell proliferation” (St. Louis University, priority 2003, dated 2010).
Values joined by “and” are separate entries in the source; they are usually repeats but may differ in a detail not shown here. Equal entries are not always repeated.

Tests used:
[1] = test system: MEF cells; experiment: Cell growth (cell number), MEF cells; format: cell-based, mouse; conditions: IGFBP-3 up to 1 μg/ml
Protocol: (§1) FIG. 7 depicts the effect of TGF-β1 on DNA synthesis (A), cell growth (B) and PAI-1 expression (C) in MEF and PEA-13 cells. (A) Cells were treated with various concentrations of TGF-β1 as indicated. DNA synthesis was determined by measuring [methyl-^3H] thymidine incorporation into cellular DNA. The [methyl-^3H] thymidine incorporation in cells treated without TGF-β1 (100,861±3,720 and 103,262±6,722 cpm/well for MEF and PEA-13 cells, respectively) was taken as 0% inhibition. The negative values of inhibition indicate mitogenic activity. […] Each datapoint is the mean±S.D. of quadruplicate determinations. […] Data are representative of six similar experiments. (B) Cells were treated with various concentrations of TGF-β1 as indicated. The cell number was counted after a 4 day incubation. […] The negative values of the inhibition indicate the growth stimulatory activity. Each datapoint is the mean±S.D. of quadruplicate determinations. […] Data are representative of four similar experiments. (C) Cells were treated with various concentrations of TGF-β1 as indicated. The PAI-1 expression in these cells was determined by Northern blot analysis. […] The relative levels of the transcripts were quantified by a PhosphoImager. […]
(§2) Cells were plated at a density of 1-2×10^4 cells/dish in DMEM containing 1% fetal calf serum. The cell number was counted every day or after a 3-day incubation using a hematocytometer. […]

[2] = test system: PEA-13 cells; experiment: Cell growth (cell number), PEA-13 cells; format: cell-based, mouse; conditions: IGFBP-3 up to 1 μg/ml
Protocol: as §1, §2

[3] = test system: IRS-2; experiment: 32P metabolic labeling and immunoprecipitation of IRS-2, MB102-16 cells; format: cell-based, mink; conditions: MB102-16 cells (αIβI); IGFBP-3 1 μg/ml, GM-CSF 1 nM
[4] = test system: PEA-C11 cells; experiment: [methyl-3H] thymidine incorporation, PEA-C11 cells; format: cell-based, mink; conditions: IGFBP-3 0.5 μg/ml
[5] = test system: DR26 cells; experiment: [methyl-3H] thymidine incorporation, DR26 cells; format: cell-based, mink; conditions: IGFBP-3 0.5 μg/ml, DR26
Protocol: (A,B) DR26 cells were incubated with various concentrations as indicated of IGFBP-3 in the absence (A) and presence (B) of various concentrations of insulin. After 18 hr at 37° C., the [methyl-^3H] thymidine incorporation into cellular DNA was determined. (C,D,E) Mv1Lu, DR26 and R1B cells metabolically labeled with ^[…]-orthophosphate for 2 hr were treated with IGFBP-3 (1:g/ml) or insulin (10 nM) (C). DR26 cells metabolically labeled with ^[…]-orthophosphate for 2 hr were treated with or without IGFBP-3 (1 μg/ml) in the presence of various concentrations of TGF-β1 as indicated (D). Mv1Lu cells expressing αIβI and αIβII chimeric receptors (MB102-16 and MB102-9 cells, respectively) metabolically labeled with ^[…]-orthophosphate for 2 hr were treated with or without IGFBP-3 (1 μg/ml) or GM-CSF (1 nM) (E). After 2 hr at 37° C. (in the absence of […]-orthophosphate in the medium), the ^[…]-labeled IRS-2 was immunoprecipitated and analyzed by 7.5% SDS-PAGE and autoradiography. […]
Mv1Lu cells were plated on 24-well clustered dishes and incubated with various concentrations of TGF-β1 or IGFBP-3 in DMEM containing 0.1% fetal calf serum. After incubation at 37° C. for 18 hr, the cells were pulse-labeled with 1 μCi of [methyl-^3H]thymidine at 37° C. for 2 hr and the [methyl-^3H] thymidine incorporation into cellular DNA was determined as described previously (59). […]

[6] = test system: H1299/vector cells; experiment: [methyl-3H] thymidine incorporation, H1299/vector cells; format: cell-based, human; conditions: various concentrations
[7] = target: TβR-V/IGFBP-3 receptor; conditions: Mv1Lu cells; read-out: Kd of IGFBP-3 binding to its receptor; cited from earlier work
[8] = test system: Mv1Lu cells; experiment: [methyl-3H] thymidine incorporation (DNA synthesis), Mv1Lu cells; format: cell-based, mink; conditions: IGFBP-3 0.5 μg/ml, Mv1Lu
[9] = test system: H1299/vector cells; experiment: Cell growth (cell number), H1299/vector cells; format: cell-based, human; conditions: TGF-β1 20 pM or IGFBP-3 1 μg/ml, 3-day
[10] = test system: PEA-C11 cells; experiment: Cell growth (cell number), PEA-C11 cells; format: cell-based, mink; conditions: IGFBP-3 0.5 μg/ml, PEA-C11, 4-day
Protocol: FIG. 6 depicts the effects of IGFBP-3 and TGF-β1 on DNA synthesis (A), cell growth (B) and PAI-1 expression (C) in Mv1Lu and PEA-C11 cells. (A,B) Cells were incubated with various concentrations of IGFBP-3 (a) or TGF-β1 (b) as indicated. DNA synthesis and cell growth were determined by measuring the [methyl-^3H] thymidine incorporation into cellular DNA after 18 hr incubation (A) and by counting cell number after a 4-day incubation (B), respectively. The [methyl-^3H] thymidine incorporation in cells treated without IGFBP-3 and TGF-β1 (29,170±1,657 and 59,947±7,692 cpm/well for Mv1Lu and PEA-C11 cells, respectively) were taken as 0% inhibition. […] Each data point is the mean±S.D. of quadruplicate determinations. […] Data are representative of eight similar experiments. (C) Cells were incubated with various concentrations of TGF-β1 as indicated. After 2 hr at 37° C., the PAI-1 expression was determined by Northern blot analysis. The expression of glyceraldehyde-3-phosphate dehydrogenase (G3PDH) was used as control. The relative levels of the transcripts were quantified by a Phospholmager. Data are representative of four similar experiments.
Cells were plated at a density of 1-2×10^4 cells/dish in DMEM containing 1% fetal calf serum. The cell number was counted every day or after a 3-day incubation using a hematocytometer. The assays were performed in quadruplicate.

[11] = test system: IRS-2; experiment: 32P metabolic labeling and immunoprecipitation of IRS-2, MB102-9 cells; format: cell-based, mink; conditions: MB102-9 cells (αIβII); IGFBP-3 1 μg/ml, GM-CSF 1 nM

## IGFBP-3: human insulin-like growth factor binding protein-3 expressed in E. Coli
[1]
  Effect on cell growth: did not appear to have a significant effect
[2]
  Effect on cell growth: did not appear to have a significant effect
[3]
  Specific dephosphorylation (mobility change) of IRS-2: induced specific dephosphorylation
[4]
  Inhibition of DNA synthesis: ~10%
[5]
  Inhibition of DNA synthesis: ~80%
[6]
  Effect on DNA synthesis: acted as mitogens or growth stimulators
[7]
  Kd: 6 nM
[8]
  Inhibition of DNA synthesis: ~30% and 30-50%
[9]
  Effect on cell growth: acted as mitogens or growth stimulators
[10]
  Inhibition of cell growth: ~45%
[11]
  Specific dephosphorylation (mobility change) of IRS-2: induced specific dephosphorylation
